# Measured values from US9302999B2, “Substituted triazoles as herbicides” (E. I. DU PONT DE NEMOURS AND COMPANY, priority 2012, dated 2016).
# What was measured:
# Format in all cases: in vivo
# [1] = system: nightshade (eastern black nightshade, Solanum ptycanthum); assay: Test C pre-/postemergence: nightshade; conditions: Preemergence
# How it was run: (§1)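 Visual injury scored 0–100 (100 = complete control) against untreated controls after 13–15 greenhouse days. Surfactant-containing solvent formulations applied either to soil after sowing (loam/sand) or over 1- to 4-leaf plants, 2–18 cm tall.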
# [2] = system: wheat, winter (winter wheat, Triticum aestivum); assay: Test D pre-/postemergence: wheat, winter
# How it was run: (§2)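 We sprayed chemicals in a surfactant-containing solvent onto silt loam at planting (preemergence) and onto 1- to 4-leaf seedlings (postemergence). Fourteen to 21 days later, each species was rated visually from 0 to 100 relative to controls.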
# [3] = system: goosegrass (Eleusine indica); assay: Test C pre-/postemergence: goosegrass
# How it was run: as §1
# [4] = system: foxtail, green (green foxtail, Setaria viridis); assay: Test C pre-/postemergence: foxtail, green
# How it was run: as §1
# [5] = system: galium (catchweed bedstraw, Galium aparine); assay: Test D pre-/postemergence: galium
# How it was run: as §2
# [6] = system: bromegrass, downy (downy bromegrass, Bromus tectorum); assay: Test D pre-/postemergence: bromegrass, downy
# How it was run: as §2
# [7] = system: field poppy (Papaver rhoeas); assay: Test D pre-/postemergence: field poppy
# How it was run: as §2
# [8] = system: windgrass (Apera spica-venti); assay: Test D pre-/postemergence: windgrass
# How it was run: as §2
# [9] = system: Russian thistle (Salsola kali); assay: Test C pre-/postemergence: Russian thistle; conditions: Preemergence
# How it was run: as §1
# [10] = system: Russian thistle (Salsola iberica); assay: Test D pre-/postemergence: Russian thistle
# How it was run: as §2
# [11] = 31 g ai/ha, scale of 0 to 100, 0 is no effect, 100 is complete control
# [12] = 62 g ai/ha, scale of 0 to 100, 0 is no effect, 100 is complete control
# [13] = 125 g ai/ha, scale 0 to 100, 0 no effect, 100 complete control
# [14] = 250 g ai/ha, scale 0 to 100, 0 no effect, 100 complete control
# [15] = Postemergence, 31 g ai/ha, scale 0 to 100 (0 no effect, 100 complete control)
# [16] = Postemergence, 62 g ai/ha, scale 0 to 100 (0 no effect, 100 complete control)
# [17] = Postemergence, 125 g ai/ha, scale 0 to 100, 0 no effect, 100 complete control
# [18] = Postemergence, 8 g ai/ha, scale 0 to 100
# [19] = Postemergence, 16 g ai/ha, scale 0 to 100
# [20] = Postemergence, 250 g ai/ha, scale 0 to 100
# [21] = Preemergence, 31 g ai/ha, scale of 0 to 100, 0 is no effect, 100 is complete control
# [22] = Preemergence, 62 g ai/ha, scale of 0 to 100, 0 is no effect, 100 is complete control
# [23] = Preemergence, 125 g ai/ha, scale 0 to 100, 0 no effect, 100 complete control
# [24] = Preemergence, 250 g ai/ha, scale 0 to 100, 0 no effect, 100 complete control
# [25] = Postemergence, 31 g ai/ha, scale 0 to 100
# [26] = 31 g ai/ha, scale 0 (no effect) to 100 (complete control)
# [27] = Postemergence, 250 g ai/ha, scale 0 to 100 (0 no effect, 100 complete control)
# [28] = Preemergence, 16 g ai/ha, scale 0 to 100 (0 no effect, 100 complete control)
# [29] = Preemergence, 31 g ai/ha, scale 0 to 100 (0 no effect, 100 complete control)
# [30] = Preemergence, 62 g ai/ha, scale 0 to 100
# [31] = Preemergence, 125 g ai/ha, scale 0 to 100
# [32] = Preemergence, 250 g ai/ha, scale 0 to 100
# [33] = Preemergence, 31 g ai/ha, scale 0 (no effect) to 100 (complete control)
smiles,measurement,setting,value
Cc1nn(-c2ccc(F)c(F)c2)nc1Oc1ccnc(C(F)(F)F)c1 [Compound 145],"Plant response rating, Nightshade",[1]; [11],35
same,"Plant response rating, Nightshade",[1]; [12],80
same,"Plant response rating, Nightshade",[1]; [13],85
same,"Plant response rating, Nightshade",[1]; [14],90
same,"Plant response rating: Wheat, Winter",[2]; [15],10
same,"Plant response rating: Wheat, Winter",[2]; [16],10
same,"Plant response rating: Wheat, Winter",[2]; [17],10
same,"Plant response rating, Wheat, Winter",[2]; [18],5
same,"Plant response rating, Wheat, Winter",[2]; [19],5
same,"Plant response rating, Goosegrass",[3]; [15],25
same,"Plant response rating, Goosegrass",[3]; [16],35
same,"Plant response rating, Goosegrass",[3]; [17],70
same,"Plant response rating, Goosegrass",[3]; [20],80
same,"Plant response rating, Goosegrass",[3]; [21],98
same,"Plant response rating, Goosegrass",[3]; [22],100
same,"Plant response rating, Goosegrass",[3]; [23],100
same,"Plant response rating, Goosegrass",[3]; [24],100
same,"Plant response rating, Foxtail, Green",[4]; [15],98
same,"Plant response rating, Foxtail, Green",[4]; [16],100
same,"Plant response rating, Foxtail, Green",[4]; [17],100
same,"Plant response rating, Foxtail, Green",[4]; [20],100
same,"Plant response rating, Foxtail, Green",[4]; [21],90
same,"Plant response rating, Foxtail, Green",[4]; [22],90
same,"Plant response rating, Foxtail, Green",[4]; [23],90
same,"Plant response rating, Foxtail, Green",[4]; [24],90
same,Plant response rating: Galium,[5]; [15],35
same,Plant response rating: Galium,[5]; [16],40
same,Plant response rating: Galium,[5]; [17],70
same,"Plant response rating, Galium",[5]; [18],5
same,"Plant response rating, Galium",[5]; [19],30
same,"Plant response rating: Bromegrass, Downy",[6]; [15],5
same,"Plant response rating: Bromegrass, Downy",[6]; [16],10
same,"Plant response rating: Bromegrass, Downy",[6]; [17],10
same,"Plant response rating, Bromegrass, Downy",[6]; [18],5
same,"Plant response rating, Bromegrass, Downy",[6]; [19],5
same,Plant response rating: Field Poppy,[7]; [15],100
same,Plant response rating: Field Poppy,[7]; [16],100
same,Plant response rating: Field Poppy,[7]; [17],100
same,"Plant response rating, Field Poppy",[7]; [18],25
same,"Plant response rating, Field Poppy",[7]; [19],75
same,Plant response rating: Windgrass,[8]; [16],60
same,Plant response rating: Windgrass,[8]; [17],80
same,"Plant response rating, Windgrass",[8]; [18],5
same,"Plant response rating, Windgrass",[8]; [19],10
same,"Plant response rating, Windgrass",[8]; [25],35
same,"Plant response rating, Russian Thistle",[9]; [11],0
same,"Plant response rating, Russian Thistle",[9]; [13],90
same,"Plant response rating, Russian Thistle",[9]; [14],95
same,Plant response rating: Russian Thistle,[10]; [15],95
same,Plant response rating: Russian Thistle,[10]; [16],98
same,Plant response rating: Russian Thistle,[10]; [17],100
same,"Plant response rating, Russian Thistle",[10]; [18],10
same,"Plant response rating, Russian Thistle",[10]; [19],40
CCOc1nn(-c2ccc(F)cc2)nc1Cc1ccnc(C(F)F)c1 [Compound 195],"Plant response rating, Nightshade",[1]; [26],60
same,"Plant response rating, Nightshade",[1]; [12],85
same,"Plant response rating, Nightshade",[1]; [13],95
same,"Plant response rating, Nightshade",[1]; [14],98
same,"Plant response rating: Wheat, Winter",[2]; [15],10
same,"Plant response rating: Wheat, Winter",[2]; [16],10
same,"Plant response rating: Wheat, Winter",[2]; [17],25
same,"Plant response rating: Wheat, Winter",[2]; [27],40
same,"Plant response rating, Wheat, Winter",[2]; [19],5
same,"Plant response rating, Wheat, Winter",[2]; [28],0
same,"Plant response rating, Wheat, Winter",[2]; [29],0
same,"Plant response rating, Wheat, Winter",[2]; [30],0
same,"Plant response rating, Wheat, Winter",[2]; [31],0
same,"Plant response rating, Wheat, Winter",[2]; [32],10
same,"Plant response rating, Goosegrass",[3]; [15],50
same,"Plant response rating, Goosegrass",[3]; [16],50
same,"Plant response rating, Goosegrass",[3]; [17],60
same,"Plant response rating, Goosegrass",[3]; [27],80
same,"Plant response rating, Goosegrass",[3]; [33],98
same,"Plant response rating, Goosegrass",[3]; [22],100
same,"Plant response rating, Goosegrass",[3]; [23],100
same,"Plant response rating, Goosegrass",[3]; [24],100
same,"Plant response rating, Foxtail, Green",[4]; [15],100
same,"Plant response rating, Foxtail, Green",[4]; [16],100
same,"Plant response rating, Foxtail, Green",[4]; [17],100
same,"Plant response rating, Foxtail, Green",[4]; [27],100
same,"Plant response rating, Foxtail, Green",[4]; [33],90
same,"Plant response rating, Foxtail, Green",[4]; [22],90
same,"Plant response rating, Foxtail, Green",[4]; [23],90
same,"Plant response rating, Foxtail, Green",[4]; [24],90
same,Plant response rating: Galium,[5]; [15],30
same,Plant response rating: Galium,[5]; [16],50
same,Plant response rating: Galium,[5]; [17],75
same,Plant response rating: Galium,[5]; [27],80
same,"Plant response rating, Galium",[5]; [19],20
same,"Plant response rating, Galium",[5]; [28],0
same,"Plant response rating, Galium",[5]; [29],0
same,"Plant response rating, Galium",[5]; [30],10
same,"Plant response rating, Galium",[5]; [31],30
same,"Plant response rating, Galium",[5]; [32],80
same,"Plant response rating: Bromegrass, Downy",[6]; [15],15
same,"Plant response rating: Bromegrass, Downy",[6]; [16],20
same,"Plant response rating: Bromegrass, Downy",[6]; [17],35
same,"Plant response rating: Bromegrass, Downy",[6]; [27],40
same,"Plant response rating, Bromegrass, Downy",[6]; [19],5
same,"Plant response rating, Bromegrass, Downy",[6]; [28],0
same,"Plant response rating, Bromegrass, Downy",[6]; [29],0
same,"Plant response rating, Bromegrass, Downy",[6]; [30],25
same,"Plant response rating, Bromegrass, Downy",[6]; [31],35
same,"Plant response rating, Bromegrass, Downy",[6]; [32],50
same,Plant response rating: Field Poppy,[7]; [15],75
same,Plant response rating: Field Poppy,[7]; [16],95
same,Plant response rating: Field Poppy,[7]; [17],100
same,Plant response rating: Field Poppy,[7]; [27],100
same,"Plant response rating, Field Poppy",[7]; [19],35
same,"Plant response rating, Field Poppy",[7]; [28],30
same,"Plant response rating, Field Poppy",[7]; [29],40
same,"Plant response rating, Field Poppy",[7]; [30],60
same,"Plant response rating, Field Poppy",[7]; [31],100
same,"Plant response rating, Field Poppy",[7]; [32],100
same,Plant response rating: Windgrass,[8]; [16],30
same,Plant response rating: Windgrass,[8]; [17],70
same,Plant response rating: Windgrass,[8]; [27],80
same,"Plant response rating, Windgrass",[8]; [19],10
same,"Plant response rating, Windgrass",[8]; [25],15
same,"Plant response rating, Windgrass",[8]; [28],25
same,"Plant response rating, Windgrass",[8]; [29],40
same,"Plant response rating, Windgrass",[8]; [30],75
same,"Plant response rating, Windgrass",[8]; [31],100
same,"Plant response rating, Windgrass",[8]; [32],100
same,"Plant response rating, Russian Thistle",[9]; [26],90
same,"Plant response rating, Russian Thistle",[9]; [12],90
same,"Plant response rating, Russian Thistle",[9]; [13],90
same,"Plant response rating, Russian Thistle",[9]; [14],90
same,Plant response rating: Russian Thistle,[10]; [15],40
same,Plant response rating: Russian Thistle,[10]; [16],80
same,Plant response rating: Russian Thistle,[10]; [17],85
same,Plant response rating: Russian Thistle,[10]; [27],100
same,"Plant response rating, Russian Thistle",[10]; [19],15
same,"Plant response rating, Russian Thistle",[10]; [28],0
same,"Plant response rating, Russian Thistle",[10]; [29],0
same,"Plant response rating, Russian Thistle",[10]; [30],0
same,"Plant response rating, Russian Thistle",[10]; [31],0
same,"Plant response rating, Russian Thistle",[10]; [32],30
